Drawing on US9725414B2, “Fungicidal N-bicycloalkyl and N-tricycloalkyl pyrazole-4-(thio)carboxamide derivatives” (priority 2011, dated 2017), this text covers logP and Efficacy for 19 molecules.

A short description of data set [1]: log P by HPLC on reversed-phase column (C 18), EEC Directive 79831 Annex V.A8. Format: physicochemical. How it is done: In table 1, the log P values were determined in accordance with EEC Directive 79831 Annex V.A8 by HPLC (High Performance Liquid Chromatography) on a reversed-phase column (C 18), using the method described below: Temperature: 40° C.; Mobile phases: 0.1% aqueous formic acid and acetonitrile; linear gradient from 10% acetonitrile to 90% acetonitrile. Calibration was carried out using unbranched alkan-2-ones (comprising 3 to 16 carbon atoms) with known log P values (determination of the log P values by the retention times using linear interpolation between two successive alkanones). lambda-max-values were determined using UV-spectra from 200 nm to 400 nm and the peak values of the chromatographic signals.

A further data set relates to Septoria tritici. Description: Example I: in vivo preventive test on Septoria tritici (wheat), acetone/tween/DMSO preparation. As to conditions: 500 ppm of active ingredient, grading 24 days after contamination. As to the method: In Vivo Preventive Test on Septoria tritici (Wheat) […] Wheat plants (“Scipion” variety), sown in starter cups on a 50/50 peat soil pozzolana substrate and grown at 22° C., are treated at the 1 leaf stage (10 cm height) by spraying with the active ingredient prepared as described above. Plants, used as controls, are treated with the mixture of acetone/tween/DMSO/water not containing the active material. After 24 hours, the plants are contaminated by spraying the leaves with an aqueous suspension of cryopreserved Septoria tritici spores (500 000 spores per mL). The contaminated wheat plants are incubated for 72 hours at 18° C. and at 100% relative humidity, and then for 21 days at 90% relative humidity. Grading (% of efficacy) is carried out 24 days after the contamination, in comparison with the control plants.

For the next data set, the system named is Botrytis cinerea. Nature of the data set: Example P: in vivo preventive test on Botrytis cinerea (grey mould), gherkin plants. As to conditions: 500 ppm of active ingredient, grading 4 to 5 days after contamination. How it is done: In Vivo Preventive Test on Botrytis cinerea (Grey Mould) […] Gherkin plants (“Vert petit de Paris” variety), sown in starter cups on a 50/50 peat soil pozzolana substrate and grown at 24° C. are treated at the Z11 cotyledon stage by spraying with the active ingredient prepared as described above. Plants, used as controls, are treated with the mixture of acetone/tween/DMSO/water not containing the active material. After 24 hours, the plants are contaminated by spraying the cotyledons with an aqueous suspension of cryopreserved Botrytis cinerea spores (50 000 spores per mL). The spores are suspended in a nutrient solution composed of 10 g/L of PDB, 50 g/L of D-Fructose, 2 g/L of NH4NO3 and 1 g/L of KH2PO4. The contaminated gherkin plants are incubated at 17° C. and at 90% relative humidity. Grading (% of efficacy) is carried out 4 to 5 days after the contamination, in comparison with the control plants.

Another data set relates to Uromyces appendiculatus. Description: Example Q: in vivo preventive test on Uromyces appendiculatus (bean rust). As to conditions: Uromyces appendiculatus on bean plants, 500 ppm of active ingredient, grading 11 days after contamination. As to the method:
In Vivo Preventive Test on Uromyces appendiculatus (Bean Rust) […] Bean plants (“Saxa” variety), sown in starter cups on a 50/50 peat soil pozzolana substrate and grown at 24° C., are treated at the 2 leaf stage (9 cm height) by spraying with the active ingredient prepared as described above. Plants, used as controls, are treated with the mixture of acetone/tween/DMSO/water not containing the active material. After 24 hours, the plants are contaminated by spraying the leaves with an aqueous suspension of Uromyces appendiculatus spores (150 000 spores per mL). The spores are collected from infected plants and are suspended in water containing 2.5 mL/L of Tween 80 at 10%. […] Grading (% of efficacy) is carried out 11 days after the contamination, in comparison with the control plants.

The test system of the next data set is Sphaerotheca fuliginea. Nature of the data set: Example B: in vivo preventive test on Sphaerotheca fuliginea (powdery mildew on cucurbits), gherkin plants. As to conditions: 500 ppm of active ingredient, grading 12 days after contamination. As to the method:
In Vivo Preventive Test on Sphaerotheca fuliginea (Powdery Mildew on Cucurbits) […] Gherkin plants (“Vert petit de Paris” variety), sown in starter cups on a 50/50 peat soil-pozzolana substrate and grown at 24° C. are treated at the Z11 cotyledon stage by spraying with the active ingredient prepared as described above. Plants, used as controls, are treated with the mixture of acetone/tween/DMSO/water not containing the active material. After 24 hours, the plants are contaminated by spraying the cotyledons with an aqueous suspension of Sphaerotheca fuliginea spores (100 000 spores per mL). The spores are collected from infected plants.

For data set [2], the system named is Pyrenophora teres. Nature of the data set: Example F: in vivo preventive test on Pyrenophora teres (barley), acetone/tween/DMSO preparation. As to conditions: 500 ppm of active ingredient, barley, grading 14 days after contamination. How it is done: In Vivo Preventive Test on Pyrenophora teres (Barley) […] Barley plants (“Plaisant” variety), sown in starter cups on a 50/50 peat soil pozzolana substrate and grown at 22° C., are treated at the 1 leaf stage (10 cm height) by spraying with the active ingredient prepared as described above. Plants, used as controls, are treated with the mixture of acetone/tween/DMSO/water not containing the active material. After 24 hours, the plants are contaminated by spraying the leaves with an aqueous suspension of Pyrenophora teres spores (12 000 spores per mL). The spores are collected from a 12-day-old culture. […] Grading (% of efficacy) is carried out 14 days after the contamination, in comparison with the control plants.

A further data set deals with Puccinia recondita. Nature of the data set: Example M: in vivo preventive test on Puccinia recondita (brown rust on wheat). As to conditions: 500 ppm of active ingredient, grading 12 days after contamination. As to the method: In Vivo Preventive Test on Puccinia recondita (Brown Rust on Wheat) […] Wheat plants (“Scipion” variety), sown in starter cups on a 50/50 peat soil pozzolana substrate and grown at 22° C., are treated at the 1 leaf stage (10 cm height) by spraying with the active ingredient prepared as described above. Plants, used as controls, are treated with the mixture of acetone/tween/DMSO/water not containing the active material. After 24 hours, the plants are contaminated by spraying the leaves with an aqueous suspension of Puccinia recondite spores (100 000 spores per mL). The spores are collected from an infected plant and are suspended in water containing 2.5 mL/L of Tween 80 at 10%. […] Grading (% of efficacy) is carried out 12 days after the contamination, in comparison with the control plants.

In another data set the test system is Alternaria solani. Nature of the data set: Example C: in vivo preventive test on Alternaria solani (tomato). As to conditions: 500 ppm of active ingredient, evaluated 7 days after inoculation. As to the method:
(§1) In Vivo Preventive Test on Alternaria solani (Tomato) Solvent: 49 parts by weight of N,N-dimethylformamide Emulsifier: 1 part by weight of alkylarylpolyglycolether To produce a suitable preparation of active compound, 1 part by weight of active compound is mixed with the stated amounts of solvent and emulsifier, and the concentrate is diluted with water to the desired concentration. To test for preventive activity, young plants are sprayed with the preparation of active compound at the stated rate of application. One day after this treatment, the plants are inoculated with an aqueous spore suspension of Alternaria solani. The plants remain for one day in an incubation cabinet at approximately 22° C. and a relative atmospheric humidity of 100%. Then the plants are placed in an incubation cabinet at approximately 20° C. and a relative atmospheric humidity of 96%.

Data set [3] relates to Pyrenophora teres. Description: Example E: in vivo preventive test on Pyrenophora teres (barley), DMF/emulsifier preparation. As to conditions: 500 ppm of active ingredient, evaluated 7-9 days after inoculation. As to the method: as §1, with “Pyrenophora teres (Barley)” for “Alternaria solani (Tomato)”, “alkylaryl polyglycol ether” for “alkylarylpolyglycolether”, “Pyrenophora teres.” for “Alternaria solani.”, “48 hours” for “one day”, “at” for “at approximately”, “100%.” for “100%. Then the plants are placed in an incubation cabinet at approximately 20° C. and a relative atmospheric humidity of 96%.”

The mark [4] stands for this setting: HPLC reversed-phase C 18, 40° C., 0.1% aqueous formic acid and acetonitrile gradient, several values = mixture of two or more isomers.

Where two headings read alike, the source gives them in different places.

As a reminder, the logP is the decadic logarithm of the partition coefficient of the neutral form, usually between octanol and water.

In data set [1], `Cn1nc(C(F)F)c(C(=O)NC23CC4CC(CC(C4)C2)C3)c1F` [Example 56] registered a logP of 3.57. For the same molecule, the Efficacy in the data set on Septoria tritici was 83%; with Botrytis cinerea, 100%.
As to `Cn1cc(C(=O)NC2CC3CCC2C3)c(C(F)F)n1` (stereo not drawn) [Example 46], the logP in [1] (setting [4]) was 2.14. Also, the figures for the Efficacy with Septoria tritici, with Botrytis cinerea and in the data set with Uromyces appendiculatus were 75%, 88% and 85%, respectively.
On to `Cn1cc(C(=O)N(CC2CCC3CCCC32)C2CC2)c(C(F)F)n1` (stereo not drawn) [Example 59], for which the logP in data set [1] (setting [4]) is 3.50. Further, the Efficacy with Sphaerotheca fuliginea is 100%; in the data set with Pyrenophora teres [2], 100%; with Puccinia recondita it was 89%; in the data set on Botrytis cinerea, 100%; in the data set with Uromyces appendiculatus it was 75%.
As to `Cn1cc(C(=O)N(CC2CCC3CCCC3C2)C2CC2)c(C(F)F)n1` (stereo not drawn) [Example 63], in data set [1] (setting [4]), the logP amounted to 3.92. In addition, the Efficacy in the data set with Sphaerotheca fuliginea came to 100%; with Pyrenophora teres [2] it was 79%; in the data set with Septoria tritici, 97%; in the data set with Puccinia recondita it was 81%; with Botrytis cinerea, 85%.
As to `CC1C(NC(=O)c2c(C(F)F)nn(C)c2Cl)CC2CC1C2(C)C` (stereo not drawn) [Example 51], the logP in data set [1] turned out to be 3.79. In addition, the Efficacy in the data set with Botrytis cinerea is listed as 95%.
For `Cn1nc(C(F)F)c(C(=O)N(C2CC2)C2CCC3CCCC3C2)c1Cl` (mixture of isomers) [Example 21], the Efficacy is 90% in the data set with Alternaria solani, 100% in the data set with Pyrenophora teres [3], 94% in the data set with Puccinia recondita and 98% with Uromyces appendiculatus.
Take `Cn1nc(C(F)F)c(C(=O)N(C2CC2)C2CCC3CCCCC3C2)c1F` (mixture of isomers) [Example 38]: the Efficacy in the data set with Sphaerotheca fuliginea was 93%; in the data set with Alternaria solani it was 95%; with Pyrenophora teres [3] it was 100%; in the data set on Pyrenophora teres [2] it was 100%; with Septoria tritici it was 96%; in the data set with Puccinia recondita, 100%. In the data set with Uromyces appendiculatus, the Efficacy amounted to 100%.
For the molecule `CC1C(NC(=O)c2cn(C)nc2C(F)F)CC2CC1C2(C)C` (stereo not drawn) [Example 54], the logP in [1] came to 3.19. The molecule also gave an Efficacy with Botrytis cinerea of 85%.
As to `Cn1cc(C(=O)N(C2CC2)C2CC3CCCCC3C2)c(C(F)F)n1` (stereo not drawn) [Example 13], the logP in data set [1] (setting [4]) turned out to be 3.61. Moreover, the Efficacy was determined as 80% with Sphaerotheca fuliginea; 97% in the data set on Pyrenophora teres [2]; 90% with Septoria tritici; 100% in the data set on Botrytis cinerea; 91% in the data set on Uromyces appendiculatus.
On to `CC1C(NC(=O)c2cn(C)nc2C(F)F)CC2CC1C2(C)C` (stereo not drawn) [Example 52], for which the logP in data set [1] is listed as 3.19. This molecule gave an Efficacy in the data set with Botrytis cinerea of 80%.
In data set [1], `Cn1nc(C(F)F)c(C(=O)N(CC2CC3C=CC2C3)C2CC2)c1F` (stereo not drawn) [Example 73] displayed a logP of 3.23. Besides, the Efficacy in the data set with Pyrenophora teres [2] is listed as 100%; in the data set with Botrytis cinerea, 93%.
For the molecule `Cn1cc(C(=O)NC2CCC3CCCC32)c(C(F)F)n1` (stereo not drawn) [Example 1], in data set [1] (setting [4]), the logP stood at 2.51. For the same molecule, the figures for the Efficacy in the data set on Septoria tritici, in the data set on Puccinia recondita and in the data set on Uromyces appendiculatus were 80%, 94% and 95%, respectively.
For `Cn1cc(C(=O)N(C2CC2)C2CCC3CCCC3C2)c(C(F)F)n1` (mixture of isomers) [Example 23], the Efficacy with Sphaerotheca fuliginea worked out at 83%; with Alternaria solani it was 80%; with Pyrenophora teres [3], 100%; with Puccinia recondita it was 81%.
Regarding `Cn1nc(C(F)F)c(C(=O)NC2CC3CCC2C3)c1Cl` (stereo not drawn) [Example 47], in [1] (setting [4]), the logP came out at 2.64. Further, the Efficacy with Pyrenophora teres [2] turned out to be 88%; with Septoria tritici it was 83%; in the data set on Botrytis cinerea, 97%; in the data set on Uromyces appendiculatus, 83%.
Turning to `CON(C(=O)c1c(C(F)F)nn(C)c1F)C(C)C1CC2CCC1C2` (stereo not drawn) [Example 99], in data set [1] (setting [4]), the logP worked out at 3.67. Further, the Efficacy with Sphaerotheca fuliginea was found to be 100%; with Pyrenophora teres [2], 100%; with Puccinia recondita it was 95%; with Botrytis cinerea it was 100%.
Take `CC1C(NC(=O)c2c(C(F)F)nn(C)c2Cl)CC2CC1C2(C)C` (stereo not drawn) [Example 53]: the logP in data set [1] (setting [4]) stood at 3.79. The Efficacy with Pyrenophora teres [2] was determined as 75%; in the data set with Septoria tritici, 83%; with Botrytis cinerea, 99%.
For `Cn1nc(C(F)F)c(C(=O)N(CC2CCC3CCCC3C2)C2CC2)c1Cl` (stereo not drawn) [Example 64], the logP in data set [1] (setting [4]) is 4.59. Besides, the Efficacy with Sphaerotheca fuliginea was found to be 89%; in the data set on Pyrenophora teres [2], 71%; in the data set on Septoria tritici, 93%; with Puccinia recondita, 94%.
In data set [1], `Cn1nc(C(F)F)c(C(=O)NC23CC4CC(CC(C4)C2)C3)c1Cl` [Example 57] returned a logP of 3.81. Further, the Efficacy in the data set with Septoria tritici and in the data set on Botrytis cinerea was 75% in each case.
With `Cn1nc(C(F)F)c(C(=O)NC2CC3CCC2C3)c1F` (stereo not drawn) [Example 48], in [1] (setting [4]), the logP turned out to be 2.46. In addition, the Efficacy in the data set on Pyrenophora teres [2] is 88%; with Septoria tritici, 83%; with Puccinia recondita it was 75%; with Botrytis cinerea it was 83%; in the data set on Uromyces appendiculatus it was 87%.
